Laboratory results reported in patent US20110287953A1, “METHOD FOR DISCOVERING POTENTIAL DRUGS” (priority 2010, published 2011).

Experiments:
[1] = system: HCC cell lines; assay: Drug efficacy label of top 10 CMap drugs (MTT or clonogenic); type: cell-based; details: Table 2-3; labels (1) and (4); gene set in which the drug ranked top 10;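 note: label 1 means effective by MTT or clonogenic assay and 4 means ineffective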
Protocol: (§1) The HCC cell lines, Mahlavu, PLC5, HepG2, and Huh7, were cultured in Dulbecco's Modified Eagle Medium (DMEM; Seromed, Berlin, Germany) supplemented with 10% heat-inactivated fetal bovine serum, 100 μg/ml streptomycin, 100 μg/ml penicillin, and 2 mM L-glutamine in a humidified atmosphere containing 5% CO2 at 37° C. […] The cells were exposed to different concentrations of the small molecules for 72 hours. Control cells were incubated in the absence of small molecules. Afterwards, the cells were incubated with medium containing MTT for 2 hours. […] For the clonogenic assay, Huh7 cells were seeded out in appropriate dilutions in a 6-well plate and treated with selected small molecules at various concentrations for 15 days. Colonies were fixed with glutaraldehyde (6.0% v/v), stained with crystal violet (0.5% w/v), and counted.

[2] = system: HCC cell lines, Mahlavu, PLC5, HepG2, and Huh7; assay: MTT cell viability test in HCC cell lines; details: HCC cell lines, MTT
Protocol: as §1

[3] = system: Huh-7 cells; details: proliferation of Huh-7 cells, other reports; cited from earlier work
[4] = system: Huh7 cells; assay: Clonogenic assay; type: cell-based; details: colony number at 10 μM; for inhibition at 10 µM: Homo sapiens, Huh-7, 360 h, Table 3-1, 15 days; for Clonogenic assay: Table 2-2, 15 days
Protocol: The HCC cell lines, Mahlavu, PLC5, HepG2, and Huh7, were cultured in Dulbecco's Modified Eagle Medium (DMEM; Seromed, Berlin, Germany) supplemented with 10% heat-inactivated fetal bovine serum, 100 μg/ml streptomycin, 100 μg/ml penicillin, and 2 mM L-glutamine in a humidified atmosphere containing 5% CO2 at 37° C. The viability of the exposed cells was determined using the MTT cell viability assay kit (Sigma-Aldrich, St. Louis, USA), according to the manufacturer's instructions. […] The cells were exposed to different concentrations of the small molecules for 72 hours. Control cells were incubated in the absence of small molecules. Afterwards, the cells were incubated with medium containing MTT for 2 hours. The optical density at 450 nm was measured using a microplate reader (Spectral Max250). For the clonogenic assay, Huh7 cells were seeded out in appropriate dilutions in a 6-well plate and treated with selected small molecules at various concentrations for 15 days. Colonies were fixed with glutaraldehyde (6.0% v/v), stained with crystal violet (0.5% w/v), and counted.

[5] = system: hepatocellular carcinoma or HCC; details: Table 2-3; labels (2) and (3), PubMed references; cited from earlier work
[6] = system: NPC cell lines, TW01, TW03, TW04, BM1
Protocol: NPC cell lines, TW01, TW03, and TW04 provided by Dr. C T Lin (National Taiwan University, Taiwan), were derived from primary nasopharyngeal tumors of Chinese patients with de novo NPC and had been tested and authenticated (27). NPC cell line BM1, provided by Dr. S K Liao (Chang Gung University, Taiwan), was derived from bone metastatic lesions of an NPC patient (28). NPC cell lines were maintained in DMEM with 10% FBS containing penicillin (100 U/mL) and streptomycin (100 μg/mL) in 5% CO2 at 37° C. Cell viability was determined using the XTT cell viability assay kit (Sigma-Aldrich, St. Louis, USA), according to the manufacturer's instructions. […] Cells were exposed with or without small molecules for 72 hours at different concentrations. Then, the cells were incubated with medium containing XTT in an amount equal to 20% of the culture medium volume for 2 hours. Optical density was measured using a microplate reader (Spectral Max250) at 450 nm.

[7] = system: leukemic cells; details: cited from earlier work
[8] = system: B16 melanoma cells; details: cited from earlier work

Row | Structure (SMILES) | drug efficacy label [1] | IC50 ([2]; 72 h, Table 2-2) [µM] | IC50 ([2]; 72 h, Table 3-1) [µM] | inhibition at 10 µM [4] [%] | Clonogenic assay [4] | drug efficacy label [5] | further results
1 | O=c1cc(-c2ccc(O)c(O)c2)oc2cc(O)cc(O)c12 [luteolin] | luteolin (4) | > 10 | > 10 | > 50 | Ineffective | – | IC50 [3]: ~50 µM
2 | CC(C(O)c1ccc(O)cc1)N1CCC(Cc2ccccc2)CC1 (centres unmarked) [ifenprodil] | – | – | > 10 | – | – | ifenprodil (3) | –
3 | CC(/C=C/C(=O)NO)=C\[C@@H](C)C(=O)c1ccc(N(C)C)cc1 [trichostatin A] | trichostatin A (1) | – | – | – | – | – | cytotoxicity in NPC cell lines [6]: Dose-dependent cytotoxicity; IC50 ([2]; Table 2-2, 72 hours): 0.1 to 1 µM; IC50 ([2]; Table 3-1, 72 hours): 0.1 to 1 µM
4 | Nc1ccccc1NC(=O)c1ccc(CNC(=O)OCc2cccnc2)cc1 [MS-275] | – | – | – | – | – | MS-275 (2) | –
5 | Cc1cc(/C=C/c2ccc3cc(N(C)C)ccc3[n+]2C)c(C)n1-c1ccccc1 [pyrvinium] | – | – | 0.1 to 1 | – | – | pyrvinium (3) | –
6 | O=C(CCCCCCC(=O)Nc1ccccc1)NO [vorinostat] | – | – | – | – | – | vorinostat (2) | –
7 | CN1CCN(CCCN2c3ccccc3Sc3ccc(C(F)(F)F)cc32)CC1 [trifluoperazine] | trifluoperazine (1) | > 10 | > 10 | > 50 | Effective (Effectiveness in clonogenic assay is defined as reducing more than 50% colony number at 10 μM) | – | apoptosis [7]: can induce apoptosis; cytotoxicity in NPC cell lines [6]: Dose-dependent cytotoxicity; apoptosis [8]: can induce apoptosis
8 | CN(C)CCCN1c2ccccc2Sc2ccc(Cl)cc21 [chlorpromazine] | chlorpromazine (1) | > 10 | 5 to 10 | > 50 | Effective (Effectiveness in clonogenic assay is defined as reducing more than 50% colony number at 10 μM) | – | –
9 | CC(=O)[C@H]1CC[C@H]2[C@@H]3C[C@H](C)C4=CC(=O)CC[C@]4(C)[C@H]3[C@@H](O)C[C@]12C [Medrysone] | medrysone (4) | > 10 | – | – | Ineffective | – | –
